For test [1], the target named is T1, GPR6 (Homo sapiens, UniProt P46095).
T1 construct: expressed in transfected cells; host or cells: CHO cells
The test can be described thus: GPR6 antagonist functional cAMP assay (LANCE Ultra cAMP TR-FRET, CHO cells stably expressing GPR6). It is filed as cell-based. The procedure, abridged:
(§1)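 We measure cAMP by TR-FRET (665 nm) in cells held in glucose-containing Krebs-Ringer buffer with BSA and a PDE inhibitor, after a 45 min, 37 °C compound incubation. IC50s derive from a four-parameter logistic fit.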
(In general: Cyclic AMP is a second messenger, typically raised through Gs and lowered through Gi signalling.)

Test [2] has as its target T2, GPR3 (Homo sapiens, UniProt P46089).
T2 construct: expressed in transfected cells; host or cells: CHO cells
Kind of test: GPR3 antagonist functional cAMP assay (LANCE Ultra cAMP TR-FRET, CHO cells stably expressing GPR3). The test is classed as cell-based. Summed up: as §1

Where [3] appears, read: CHO cells stably expressing GPR6, cAMP assay.
The mark [4] stands for this setting: CHO cells stably expressing GPR3, cAMP assay.
Where [5] appears, read: procedure as described in Example 24.
Setting [6] is: CHO cells stably expressing GPR6, cAMP assay (Example 24).
Setting [7] is: CHO cells stably expressing GPR3, cAMP assay (Example 24).

Structures are written as SMILES.

T2 sequence (P46089 whole entry, species assumed): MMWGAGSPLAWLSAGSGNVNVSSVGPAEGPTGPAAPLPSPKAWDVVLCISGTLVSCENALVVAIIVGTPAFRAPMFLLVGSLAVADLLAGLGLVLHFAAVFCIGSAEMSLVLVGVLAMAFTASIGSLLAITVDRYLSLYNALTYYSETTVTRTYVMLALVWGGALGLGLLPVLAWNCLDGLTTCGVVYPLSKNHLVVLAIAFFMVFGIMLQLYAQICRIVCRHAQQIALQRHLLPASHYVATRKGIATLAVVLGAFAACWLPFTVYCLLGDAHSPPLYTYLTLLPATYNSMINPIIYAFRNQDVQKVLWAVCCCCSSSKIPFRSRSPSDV
T1 sequence (P46095 whole entry): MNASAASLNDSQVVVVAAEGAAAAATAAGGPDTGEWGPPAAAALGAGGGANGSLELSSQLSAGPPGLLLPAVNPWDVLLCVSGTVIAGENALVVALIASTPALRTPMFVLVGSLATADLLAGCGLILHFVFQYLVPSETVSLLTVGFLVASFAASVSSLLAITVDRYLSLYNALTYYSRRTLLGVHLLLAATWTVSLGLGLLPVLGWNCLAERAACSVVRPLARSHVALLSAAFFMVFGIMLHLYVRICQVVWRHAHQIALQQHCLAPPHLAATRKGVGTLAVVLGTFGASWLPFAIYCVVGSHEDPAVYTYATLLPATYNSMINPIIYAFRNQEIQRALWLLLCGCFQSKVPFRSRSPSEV

`CC(=O)N1CCc2nc(N3CCC(Oc4ccc(C(F)(F)F)cc4F)CC3)c(-c3cnn(C)c3)nc2C1` [Compound 501, 1-(2-{4-[2-fluoro-4-(trifluoromethyl)phenoxy]-1-piperidyl}-3-(1-methyl-4-pyrazolyl)-5,6,7,8-tetrahydro-1,4,6-triaza-6-naphthyl)-1-ethanone]: the IC50 in test [1] (setting [3]) and in test [2] (setting [4]) was 0.1 to 1 µM each time.
Take `CC(C)(O)[C@](C)(O)c1cc2nc(N3CCN(Cc4ccc(F)cc4F)CC3)c(-c3cnn(CF)c3)nc2cn1` (single isomer, unassigned) [Compound 649]: the IC50 in test [1] (procedure of Example 24) lay in the range of 0.1 to 1 µM; in test [2] (procedure of Example 24), 1 to 30 µM.
Take `CC(=O)N1CCc2nc(N3CCC(Oc4ccc(F)cc4F)CC3)c(-c3cccc(OC(C)(C)C)n3)nc2C1` [Compound 23, 1-{3-[6-(tert-butoxy)pyridin-2-yl]-2-[4-(2,4-difluorophenoxy)piperidin-1-yl]-5H,6H,7H,8H-pyrido[3,4-b]pyrazin-6-yl}ethan-1-one]: the IC50 in test [1] (setting [5]) was in the range of 1 to 30 µM; in test [2] (setting [5]), 0.1 to 1 µM.
As for `CC(=O)N1CCc2nc(N3CCN(Cc4ccc(Cl)cc4Cl)CC3)c(-c3ccc(F)c(N)n3)nc2C1` [Compound 637, 1-[3-(6-amino-5-fluoro-2-pyridyl)-2-{4-[(2,4-dichlorophenyl)methyl]-1-piperazinyl}-5,6,7,8-tetrahydro-1,4,6-triaza-6-naphthyl]-1-ethanone], the IC50 in test [1] (procedure of Example 24) was 0.1 to 1 µM; in test [2] (procedure of Example 24) it was 1 to 30 µM.
In the case of `CC(=O)N1CCc2nc(N3CCC(C(=O)c4ccc(F)cc4F)CC3)c(-c3ccc(F)c(N)n3)nc2C1` [Compound 638, 1-{3-(6-amino-5-fluoro-2-pyridyl)-2-[4-(2,4-difluorobenzoyl)-1-piperidyl]-5,6,7,8-tetrahydro-1,4,6-triaza-6-naphthyl}-1-ethanone], the half-maximal inhibitory concentration (IC50) in test [1] (procedure of Example 24) was below 0.1 µM; in test [2] (procedure of Example 24) it was 1 to 30 µM.
As to `CC(C)(C)OC(=O)N1CC(C(=O)N2CCc3nc(N4CCC(Oc5ccc(F)cc5F)CC4)c(-c4cnn(C5CCCCO5)c4)nc3C2)C1` (stereo not shown) [Compound 152, tert-butyl 3-{2-[4-(2,4-difluorophenoxy)piperidin-1-yl]-3-[1-(oxan-2-yl)-1H-pyrazol-4-yl]-5H,6H,7H,8H-pyrido[3,4-b]pyrazine-6-carbonyl}azetidine-1-carboxylate], the IC50 in test [1] (setting [6]) and in test [2] (setting [7]) was 1 to 30 µM each time.
For the molecule `CCn1cc(-c2nc3cc(C(C)(O)C(C)(C)O)ncc3nc2N2CCC(Oc3ccc(F)cc3F)CC2)cn1` (single isomer, unassigned) [Compound 741], the IC50 in test [1] (procedure of Example 24) was in the range of 0.1 to 1 µM; in test [2] (procedure of Example 24), 1 to 30 µM.
For `CC(C)(O)C(=O)c1cc2nc(N3CCN(Cc4ccc(F)cc4F)CC3)c(-c3cnn(C4CC4)c3)nc2cn1` [Compound 619, 1-[3-(1-cyclopropyl-4-pyrazolyl)-2-{4-[(2,4-difluorophenyl)methyl]-1-piperazinyl}-1,4,6-triaza-7-naphthyl]-2-hydroxy-2-methyl-1-propanone], in that order: 0.1 to 1 µM and 1 to 30 µM.
In the case of `CC(C)(O)Cc1cc2nc(N3CCC(Oc4ccc(F)cc4F)CC3)c(-c3cnn(CF)c3)nc2cn1` [Compound 710, 1-{2-[4-(2,4-difluorophenoxy)-1-piperidyl]-3-[1-(fluoromethyl)-4-pyrazolyl]-1,4,6-triaza-7-naphthyl}-2-methyl-2-propanol], the results for the IC50 in test [1] (procedure of Example 24) and in test [2] (procedure of Example 24) were 0.1 to 1 µM and 1 to 30 µM, respectively.
Turning to `CC(=O)N1CCc2nc(N3CCC(Oc4ccc(F)cc4F)CC3)c(-c3cccc(NC(C)C)n3)nc2C1` [Compound 103, 1-{2-[4-(2,4-difluorophenoxy)piperidin-1-yl]-3-{6-[(propan-2-yl)amino]pyridin-2-yl}-5H,6H,7H,8H-pyrido [3,4-b]pyrazin-6-yl}ethan-1-one], the results for the IC50 in test [1] (setting [6]) and in test [2] (setting [7]) were 1 to 30 µM and at least 30 µM, respectively.
For the molecule `CC(=O)N1CCc2nc(N3CCN(Cc4ccc(F)cc4C#N)CC3)c(-c3cnn(C)c3)nc2C1` [Compound 355, 2-({4-[6-acetyl-3-(1-methyl-1H-pyrazol-4-yl)-5H,6H,7H,8H-pyrido[3,4-b]pyrazin-2-yl]piperazin-1-yl}methyl)-5-fluorobenzonitrile], the IC50 in test [1] (procedure of Example 24) and in test [2] (procedure of Example 24) was 1 to 30 µM each time.
With `CC(C)(O)[C@@H](O)c1cc2nc(N3CCC(Oc4ccc(F)cc4F)CC3)c(-c3cnn(C(F)F)c3)nc2cn1` (single isomer, unassigned) [Compound 555], the figures for the half-inhibitory concentration (IC50) in test [1] (setting [3]) and in test [2] (setting [4]) were 0.1 to 1 µM and 1 to 30 µM, respectively.
With `CC(C)(O)[C@@H](O)c1cc2nc(N3CCC(=Cc4ccc(F)cc4F)CC3)c(-c3cnn(C(F)F)c3)nc2cn1` (single isomer, unassigned) [Compound 778], the IC50 in test [1] (procedure of Example 24) fell in the range of 0.1 to 1 µM; in test [2] (procedure of Example 24), 1 to 30 µM.
On to `CC(=O)N1CCc2nc(N3CCC(C(=O)Nc4ccc(F)cc4F)C3)c(-c3cnn(C)c3)nc2C1` (stereo not shown) [Compound 365, 1-[6-acetyl-3-(1-methyl-1H-pyrazol-4-yl)-5H,6H,7H,8H-pyrido [3,4-b]pyrazin-2-yl]-N-(2,4-difluorophenyl)pyrrolidine-3-carboxamide], for which the IC50 in test [1] (procedure of Example 24) and in test [2] (procedure of Example 24) was at least 30 µM each time.
As for `COc1ccc(OC2CCN(c3nc4cnncc4nc3-c3cnn(C)c3)CC2)c(F)c1` [Compound 417, 4-(2-fluoro-4-methoxyphenoxy)-1-[3-(1-methyl-1H-pyrazol-4-yl)pyrazino[2,3-d]pyridazin-2-yl]piperidine], the IC50 in test [1] (setting [6]) was in the range of 0.1 to 1 µM; in test [2] (setting [7]), 1 to 30 µM.
As for `COc1cccc(CN2CCN(c3nc4c(nc3-c3cnn(C)c3)CN(C(C)=O)CC4)CC2)c1F` [Compound 318, 1-(2-{4-[(2-fluoro-3-methoxyphenyl)methyl]piperazin-1-yl}-3-(1-methyl-1H-pyrazol-4-yl)-5H,6H,7H,8H-pyrido[3,4-b]pyrazin-6-yl)ethan-1-one], the IC50 was at least 30 µM in test [1] (procedure of Example 24) and 1 to 30 µM in test [2] (procedure of Example 24).
Turning to `COC(C)(C)C(=O)N1CCc2nc(N3CCC(Oc4ccc(F)cc4F)CC3)c(-c3cnn(C4CCCCO4)c3)nc2C1` (stereo not shown) [Compound 173, 1-{2-[4-(2,4-difluorophenoxy)piperidin-1-yl]-3-[1-(oxan-2-yl)-1H-pyrazol-4-yl]-5H,6H,7H,8H-pyrido[3,4-b]pyrazin-6-yl}-2-methoxy-2-methylpropan-1-one], the IC50 in test [1] (setting [6]) and in test [2] (setting [7]) was 1 to 30 µM throughout.
`COCCNc1cc2nc(-c3cnn(CF)c3)c(N3CCN(Cc4ccc(F)cc4F)CC3)nc2cn1` [Compound 762, (2-methoxyethyl)(3-{4-[(2,4-difluorophenyl)methyl]-1-piperazinyl}-2-[1-(fluoromethyl)-4-pyrazolyl]-1,4,6-triaza-7-naphthyl)amine]: the IC50 in test [1] (procedure of Example 24) and in test [2] (procedure of Example 24) was 1 to 30 µM throughout.
For `CN(C)C(=O)N1CCc2nc(N3CCC(Oc4ccc(F)cc4F)CC3)c(-c3ccc(F)c(N)n3)nc2C1` [Compound 629, 6-{6-(N,N-dimethylcarbamoyl)-2-[4-(2,4-difluorophenoxy)-1-piperidyl]-5,6,7,8-tetrahydro-1,4,6-triaza-3-naphthyl}-3-fluoro-2-pyridylamine], the IC50 in test [1] (procedure of Example 24) is below 0.1 µM; in test [2] (procedure of Example 24), 1 to 30 µM.
Turning to `CC(C)(C)OC(=O)N1CCCC1C(=O)N1CCc2nc(N3CCC(Oc4ccc(F)cc4F)CC3)c(-c3cnn(C4CCCCO4)c3)nc2C1` (stereo not shown) [Compound 186, tert-butyl 2-{2-[4-(2,4-difluorophenoxy)piperidin-1-yl]-3-[1-(oxan-2-yl)-1H-pyrazol-4-yl]-5H,6H,7H,8H-pyrido[3,4-b]pyrazine-6-carbonyl}pyrrolidine-1-carboxylate], the IC50 in test [1] (setting [6]) and in test [2] (setting [7]) was 1 to 30 µM in each case.
`COc1ccc(-c2nc3c(nc2N2CCC(Oc4ccc(F)cc4F)CC2)CCN(C(C)=O)C3)nn1` [Compound 189, 1-{2-[4-(2,4-difluorophenoxy)piperidin-1-yl]-3-(6-methoxypyridazin-3-yl)-5H,6H,7H,8H-pyrido[3,4-b]pyrazin-6-yl}ethan-1-one]: the IC50 lay in the range of 0.1 to 1 µM in test [1] (setting [6]) and 1 to 30 µM in test [2] (setting [7]).
Turning to `CCn1cc(-c2nc3cnc([C@@](C)(O)C(C)(C)O)cc3nc2N2CCC(Oc3ccc(F)cc3F)CC2)cn1` (single isomer, unassigned) [Compound 736], the results for the IC50 in test [1] (procedure of Example 24) and in test [2] (procedure of Example 24) were 0.1 to 1 µM and 1 to 30 µM, respectively.
Take `COC1CN(c2cc3nc(N4CCC(Oc5ccc(F)cc5F)CC4)c(-c4cnn(C)c4)nc3cn2)C1` [Compound 450, 4-(2,4-difluorophenoxy)-1-[7-(3-methoxyazetidin-1-yl)-3-(1-methyl-1H-pyrazol-4-yl)pyrido[3,4-b]pyrazin-2-yl]piperidine]: the IC50 in test [1] (setting [6]) and in test [2] (setting [7]) was 1 to 30 µM each time.
On to `Clc1ccc(Cl)c(CN2CCN(c3nc4ccncc4nc3-c3ncc[nH]3)CC2)c1` [Compound 5, 1-[(2,5-dichlorophenyl)methyl]-4-[3-(1H-imidazol-2-yl)pyrido[3,4-b]pyrazin-2-yl]piperazine], for which the IC50 fell in the range of 0.1 to 1 µM in test [1] (setting [5]) and 1 to 30 µM in test [2] (setting [5]).
`CCn1cc(-c2nc3c(nc2N2CCC(Oc4ccc(F)cc4F)CC2)CCN(C(=O)C(O)CO)C3)cn1` (stereo not shown) [Compound 484, 1-{2-[4-(2,4-difluorophenoxy)piperidin-1-yl]-3-(1-ethyl-1H-pyrazol-4-yl)-5H,6H,7H,8H-pyrido[3,4-b]pyrazin-6-yl}-2,3-dihydroxypropan-1-one]: the IC50 in test [1] (setting [6]) was in the range of 0.1 to 1 µM; in test [2] (setting [7]), 1 to 30 µM.
In the case of `COc1ccc(CNc2nc(-c3nc4c(nc3N3CCC(Cc5cc(F)ccc5F)CC3)CCN(C(C)=O)C4)ccc2F)cc1` [Compound 701, 1-(2-{4-[(2,5-difluorophenyl)methyl]-1-piperidyl}-3-(5-fluoro-6-{ [(p-methoxyphenyl)methyl]amino}-2-pyridyl)-5,6,7,8-tetrahydro-1,4,6-triaza-6-naphthyl)-1-ethanone], the IC50 in test [1] (procedure of Example 24) and in test [2] (procedure of Example 24) was 1 to 30 µM throughout.

The IC50 is the midpoint of a concentration-inhibition curve. Low values mean greater potency in that assay, high ones weaker potency in that assay.

The values above are taken from patent US20260042755A1, “GPR6 INVERSE AGONISTS” (MapLight Therapeutics, Inc., priority 2022, published 2026).
